Test results taken from patent publication US12077503B2, “Substituted cyclic amides and their use as herbicides” (FMC CORPORATION, priority 2015, dated 2024).

Experiments:
Type in all cases: in vivo
rice (Oryra sativa) = experiment: Test B flooded paddy test; conditions: Flood, 250 g ai/ha; 0 to 100 scale where 0 is no effect and 100 is complete control; 13 to 15 d
How it was run: (§1)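 Percent control, visually estimated after 13–15 d in the greenhouse on a 0–100 basis, compares treated pots with untreated ones; compound was put into paddy water 3 cm above the soil when plants had two leaves.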

[1] = tested on: sedge, umbrella (small-flower umbrella sedge, Cyperus difformis); experiment: Test B flooded paddy test; conditions: Flood, 250 g ai/ha; 0 to 100 scale where 0 is no effect and 100 is complete control; 13 to 15 d
How it was run: as §1

[2] = tested on: ducksalad (Heteranthera limosa); experiment: Test B flooded paddy test; conditions: Flood, 250 g ai/ha; 0 to 100 scale where 0 is no effect and 100 is complete control; 13 to 15 d
How it was run: as §1

[3] = tested on: barnyardgrass (Echinochloa crus-galli); experiment: Test B flooded paddy test; conditions: Flood, 250 g ai/ha; 0 to 100 scale where 0 is no effect and 100 is complete control; 13 to 15 d
How it was run: as §1

[4] = tested on: blackgrass (Alopecurus myosuroides); experiment: Test A postemergence
How it was run: (§2)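 Treatment is preemergence as a directed soil spray after planting, or postemergence at the one- to two-leaf stage, with test chemical in a non-phytotoxic solvent mixture plus surfactant. Plants stay in the greenhouse about 10 d before visual injury scoring on a 0 to 100 scale versus untreated controls.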

[5] = tested on: pigweed (Amaranthus retroflexus); experiment: Test A postemergence
How it was run: as §2

[6] = tested on: Galium (catchweed bedstraw, Galium aparine); experiment: Test A postemergence
How it was run: as §2

corn (Zea mays) = experiment: Test A postemergence
How it was run: as §2

[7] = tested on: barnyardgrass (Echinochloa crus-galli); experiment: Test A postemergence
How it was run: as §2

[8] = tested on: giant foxtail (Setaria faberii); experiment: Test A postemergence
How it was run: as §2

Kochia (Kochia scoparia) [9] = experiment: Test A postemergence
How it was run: as §2

[10] = tested on: wheat (Triticum aestivum); experiment: Test A postemergence
How it was run: as §2

[11] = tested on: ryegrass, Italian (Italian ryegrass, Lolium multiflorum); experiment: Test A postemergence
How it was run: as §2

[12] = tested on: ragweed (common ragweed, Ambrosia elatior); experiment: Test A postemergence
How it was run: as §2

[13] = tested on: pigweed (Amaranthus retroflexus); experiment: Test A preemergence
[14] = tested on: barnyardgrass (Echinochloa crus-galli); experiment: Test A preemergence
How it was run: as §2

[15] = tested on: giant foxtail (Setaria faberii); experiment: Test A preemergence
How it was run: as §2

Kochia (Kochia scoparia) [16] = experiment: Test A preemergence
How it was run: as §2

[17] = tested on: ryegrass, Italian (Italian ryegrass, Lolium multiflorum); experiment: Test A preemergence
How it was run: as §2

[18] = tested on: ragweed (common ragweed, Ambrosia elatior); experiment: Test A preemergence
How it was run: as §2

[19] = 125 g ai/ha, postemergence, visual rating after approx. 10 d, 0 to 100 scale (0 no effect, 100 complete control)
[20] = Postemergence, 500 g ai/ha, 0 to 100 scale where 0 is no effect and 100 is complete control
[21] = 125 g ai/ha, Preemergence, visual injury after approximately 10 d, 0 to 100 scale where 0 is no effect and 100 is complete control
[22] = Preemergence, 500 g ai/ha, visual injury approx. 10 d
[23] = 500 g ai/ha, postemergence, visual injury, 0 to 100 scale (0 no effect, 100 complete control), approx. 10 d
[24] = 500 g ai/ha, preemergence, 0 to 100 scale, 0 = no effect, 100 = complete control

Structure (SMILES) | Plant response rating, Rice (rice (Oryra sativa)) | Plant response rating, Sedge, Umbrella [1] | Plant response rating, Ducksalad [2] | Plant response rating, Barnyardgrass [3] | Plant response rating, Blackgrass [4, 19] | Plant response rating, Blackgrass [4, 20] | Plant response rating, Pigweed [5, 19] | Plant response rating, Galium [6, 19] | Plant response rating, Corn (corn (Zea mays); [19]) | Plant response rating, Corn (corn (Zea mays); [20]) | Plant response rating, Barnyardgrass [7, 19] | Plant response rating, Barnyardgrass [7, 20] | Plant response rating, Foxtail, Giant [8, 19] | Plant response rating, Kochia (Kochia (Kochia scoparia) [9]; [19]) | Plant response rating, Wheat [10, 19] | Plant response rating, Ryegrass, Italian [11, 19] | Plant response rating, Ragweed [12, 19] | Plant response rating, Pigweed [13, 21] | Plant response rating, Barnyardgrass [14, 21] | Plant response rating, Foxtail, Giant [15, 21] | also measured
C#CCN1CC(c2cccc(C(F)(F)F)c2)C(C(=O)Nc2ccccc2F)C1=O (stereo not drawn) [Compound 607] | 0 | 0 | 50 | 0 | 0 | 0 | 0 | 0 | 0 | 0 | 20 | 60 | 20 | 0 | 0 | 0 | 0 | 0 | 0 | 80 | Plant response rating, Pigweed [5, 20]: 0; Plant response rating, Galium [6, 20]: 0; Plant response rating, Foxtail, Giant [8, 20]: 60; Plant response rating, Kochia (Kochia (Kochia scoparia) [9]; [20]): 0; Plant response rating, Wheat [10, 20]: 20; Plant response rating, Ryegrass, Italian [11, 20]: 0; Plant response rating, Ragweed [12, 20]: 0; Pigweed plant response rating (0 to 100 scale, 0 is no effect, 100 is complete control) [13, 22]: 0; Barnyardgrass plant response rating (0 to 100 scale, 0 is no effect, 100 is complete control) [14, 22]: 30; Foxtail, Giant plant response rating (0 to 100 scale, 0 is no effect, 100 is complete control) [15, 22]: 90; Plant response rating, Kochia (Kochia (Kochia scoparia) [16]; [21]): 0; Kochia plant response rating (0 to 100 scale, 0 is no effect, 100 is complete control) (Kochia (Kochia scoparia) [16]; [22]): 0; Plant response rating, Ryegrass, Italian [17, 21]: 0; Ryegrass, Italian plant response rating (0 to 100 scale, 0 is no effect, 100 is complete control) [17, 22]: 0; Plant response rating, Ragweed [18, 21]: 0; Ragweed plant response rating (0 to 100 scale, 0 is no effect, 100 is complete control) [18, 22]: 0
CN1CC(c2cccc(F)c2)C(C(=O)Nc2cccc(F)c2F)C1=O (stereo not drawn) [Compound 632] | 30 | 50 | 100 | 80 | 50 | 60 | 0 | 50 | 20 | 80 | 90 | 90 | 90 | 60 | 30 | 30 | 20 | 0 | 90 | 90 | Plant response rating, Pigweed [5, 23]: 40; Plant response rating, Galium [6, 23]: 50; Plant response rating, Foxtail, Giant [8, 23]: 90; Plant response rating, Kochia (Kochia (Kochia scoparia) [9]; [23]): 60; Plant response rating, Wheat [10, 23]: 60; Plant response rating, Ryegrass, Italian [11, 23]: 50; Plant response rating, Ragweed [12, 23]: 30; Plant response rating, Pigweed [13, 24]: 70; Plant response rating, Barnyardgrass [14, 24]: 90; Plant response rating, Foxtail, Giant [15, 24]: 90; Plant response rating, Kochia (Kochia (Kochia scoparia) [16]; [21]): 50; Plant response rating, Kochia (Kochia (Kochia scoparia) [16]; [24]): 70; Plant response rating, Ryegrass, Italian [17, 21]: 60; Plant response rating, Ryegrass, Italian [17, 24]: 70; Plant response rating, Ragweed [18, 21]: 60; Plant response rating, Ragweed [18, 24]: 70
